# Source: patent EP1338283A1, “Use of neoruscine to treat alopecia” (Pierre Fabre Dermo-Cosmetique, priority 2002, dated 2003)
# Tests used:
# VEGF = VEGF assay (ELISA) in supernatants of dermal papilla cell cultures; assay type: cell-based; details: néoruscine 50 µg/ml, 24 h treatment, dermal papilla cells, ELISA on supernatants
# Procedure: La suspension de cellules de la papille dermique (10^6 cellules/2 ml) dans le DMEM 10 % SVF est distribuée dans les plaques 6 puits (10^6 cellules/puits) et incubée pendant 18 heures à 37°C dans une atmosphère à 5 % CO2. Les cellules de la papille folliculaire sont alors rincées avec du PBS pour éliminer les cellules non adhérentes puis exposées pendant 24 heures aux produits à tester inclus dans du DMEM sans SVF (qui pourrait interférer dans le dosage). Pour chaque produit testé, 3 puits sont réalisés.
# L'extrait de Ruscus et la néoruscine purifiée sont testés en culture.
# Après 24 heures de traitement, les surnageants sont récupérés, centrifugés puis conservés à -80°C avant leur utilisation ultérieure pour le dosage du VEGF.
# La production du VEGF dans les surnageants est mesurée par Kit Elisa (R&D Biosystems). Les résultats sont exprimés en picogrammes de VEGF par 10^6 cellules et en pourcentages d'activité. Dans ce test la néoruscine à 50 µg/ml stimule la production du VEGF de 329 %.
# gène du VEGF = assay: VEGF gene expression (RT-PCR) in dermal papilla cells; assay type: cell-based, humaine; details: néoruscine 50 µg/ml, 3 h incubation
# Procedure: La suspension de cellules de la papille folliculaire (10^6 cellules par boîte de 25 cm^2) dans le milieu DMEM est distribuée dans les boîtes de culture puis incubés pendant 12 heures à 37°C dans une atmosphère à 5 % de CO2. Les CPD sont ensuite rincées avec du PBS pour éliminer les cellules non adhérentes.
# Pour chaque lot, les cellules sont pré-incubées pendant 3 heures avec les produits à tester préparés dans du DMEM. Les cellules sont ensuite rincées deux fois au PBS.
# Après rinçage au PBS, les boîtes de culture sont déposées sur de la glace. Les cellules sont traitées avec la solution d'extraction d'ARN, RNAβTM (1 ml/boîte).
# Les lysats cellulaires sont ensuite récupérés, centrifugés après avoir ajouté du chloroforme. Trois phases sont alors observables • inférieure contenant les débris cellulaires - interface contenant l'ADN • […] supérieure avec l'ARN
# Les surnageants sont prélevés, les ARN sont précipités avec de l'isopropanol. […]
# La quantité d'ARN ainsi que la pureté sont déterminées par spectrophotométrie (Chomczynski P., Sacchi N. Anal. Biochem. 1987; 162: […]). […]
# Une caméra UV permet de saisir l'image du gel et la quantification du volume et de l'intensité des bandes correspondant à l'ADNc du VEGF se fait à l'aide d'un logiciel d'analyse d'image.
# [1] = system: gène cytochrome P450 aromatase; assay: Cytochrome P450 aromatase gene expression (RT-PCR) in dermal papilla cells; assay type: cell-based, humaine; details: néoruscine 5 µg/ml, 3 h exposure, human dermal papilla cells
# Procedure: Nous avons évalué, dans le cadre de cet exemple, l'activité de la néoruscine sur la transcription du gène VEGF par les cellules de la papille dermique humaine en culture.
# Les cellules de la papille dermique sont ensemencées à 10^6 cellules par boîte dans du DMEM à 10 % de SVF et 1 % de Pénicilline/Streptomycine pendant 24 heures à 37°C dans une atmosphère à 5 % CO2. Les cellules de la papille folliculaire sont alors rincées avec du PBS pour éliminer les cellules non-adhérentes puis exposées aux produits à tester dans du DMEM sans SVF (qui pourrait interférer dans le dosage) durant 3 heures.
# Les principes actifs ont été testés en culture à des concentrations non cytotoxiques. Une boîte de culture est réalisée pour chaque lot.
# Après rinçage au PBS, les boîtes de culture sont déposées sur de la glace. Les cellules sont traitées avec la solution d'extraction d'ARN, RNA βTM (1 ml/boîte). […]
# Les surnageants sont prélevés, les ARN sont précipités avec de l'isopropanol. […] La quantité d'ARN ainsi que la pureté sont déterminées par spectrophotométrie.
# L'ARN total (1 µg) est rétro-transcrit en ADN complémentaire une heure à 48°C avec le kit Access RT-PCR system (Promega). […] Une caméra UV permet de saisir l'image du gel et la quantification du volume et de l'intensité des bandes correspondant à l'ADNc et du cytochrome P450 aromatase se fait à l'aide d'un logiciel d'analyse d'image. […]
# follicule pileux humain = assay: Growth of human hair follicle ex vivo; assay type: cell-based; details: 5 days of treatment, activity versus controls
# Procedure: Les follicules pileux sont issus de scalp humain provenant du service de chirurgie plastique des hôpitaux ou des cliniques. La peau est rasée puis lavée dans 10 bains successifs de 10 min de PBS supplémentés d'antibiotiques (pénicilline 100 unités/ml et streptomycine 100 µg/ml). Les follicules en phase anagène reconnaissables car très vascularisés sont ensuite isolés de la peau sous la loupe binoculaire et débarrassés de la graisse. Ils sont ensuite incubés à 37°C dans des boîtes de culture dans du milieu de culture DMEM contenant le produit à tester. Le milieu de culture des follicules ne contient pas de sérum. Ce milieu est composé de 10µg/ml d'insuline, de 10 µg/ml de transferrine, de 10 µg/ml d'hydrocortisone, de 1% d'un mélange de pénicilline (100 uités /ml)-streptomycine (100µg/ml), de 2,5 µg/ml de fungizone et de la L-glutamine à 1mM.
# Les follicules sont mis en présence de différentes concentrations de néoruscine (50, 100 et 300 µg/ml) (10 follicules par traitement). Les témoins sont cultivés dans du milieu sans produit.
# La croissance de la tige des follicules pileux est mesurée à l'aide de papier millimétré sous loupe binoculaire au jour 0 et tous les jours pendant 5 jours. Une caméra numérique permet de saisir les images de follicules pileux et de calculer avec précision leur taux de croissance. Le pourcentage de croissance = (mesure Tx - mesure T0)/ mesure T0). [formula] […]
substance,measurement,setting,value
néoruscine,stimule la production du VEGF,VEGF,329%
same,stimulation de la transcription du gène du VEGF,gène du VEGF,"24,5%"
same,stimule la transcription du gène cytochrome P450 aromatase,[1],81%
same,"croissance des follicules pileux humains, activité du traitement",follicule pileux humain; néoruscine 100 µg/ml,"77,08%"
same,"croissance des follicules pileux humains, activité du traitement",follicule pileux humain; néoruscine 300 µg/ml,"118,09%"
